Test results published in ChEMBL document CHEMBL5625215, “Antiproliferative activity of meso-substituted BODIPY photocages: Effect of electrophiles vs singlet oxygen” (Eur J Med Chem, 2023).
Active and inactive are the calls of the source. The rule behind the calls is not given here.

Assays:
[1] = tested on: MCF7; test: Antiproliferative activity against human MCF7 cells assessed as inhibition of cell growth incubated for 72 hrs under dark condition by MTT assay; format: functional, cell-based; details: MCF7, 72 h
[2] = tested on: MCF7; test: Antiproliferative activity against human MCF7 cells assessed as inhibition of cell growth incubated for 72 hrs under photoirradiation with 6 cool white lamps for 15 mins at 4,28 and 52 hrs after compound addition by MTT assay; format: functional, cell-based; details: MCF7, light or radiation study
[3] = tested on: NCI-H460; test: Antiproliferative activity against human NCI-H460 cells assessed as inhibition of cell growth incubated for 72 hrs under dark condition by MTT assay; format: functional, cell-based; details: NCI-H460, 72 h
[4] = tested on: NCI-H460; test: Antiproliferative activity against human NCI-H460 cells assessed as inhibition of cell growth incubated for 72 hrs under photoirradiation with 6 cool white lamps for 15 mins at 4,28 and 52 hrs after compound addition by MTT assay; format: functional, cell-based; details: NCI-H460, light or radiation study
[5] = tested on: HCT-116; test: Antiproliferative activity against human HCT-116 cells assessed as inhibition of cell growth incubated for 72 hrs under dark condition by MTT assay; format: functional, cell-based; details: HCT-116, 72 h
[6] = tested on: HCT-116; test: Antiproliferative activity against human HCT-116 cells assessed as inhibition of cell growth incubated for 72 hrs under photoirradiation with 6 cool white lamps for 15 mins at 4,28 and 52 hrs after compound addition by MTT assay; format: functional, cell-based; details: HCT-116, light or radiation study
[7] = Absorption property of compound in CH3CN assessed as maximal wavelength by UV-vis spectrophotometer; format: physicochemical
[8] = Emission property of compound in CH3CN assessed as maximal wavelength by […]; format: physicochemical
[9] = Absorption property of compound in CH3CN assessed as maximal molar absorption coefficient by UV-vis spectrophotometer; format: physicochemical
[10] = Fluorescence property of compound in CH3CN assessed as fluorescence quantum yield by spectrofluorometric analysis; format: physicochemical
[11] = Induction of singlet oxygen production in CH3CN assessed as decrease in fluorescence intensity at 450 nm under photoirradiation with visible light and measured after 15 sec by DPBF based assay relative to control; format: functional; design: scale not given: the % may be the effect or the level left
[12] = Induction of singlet oxygen production in CH3CN assessed as decrease in fluorescence intensity at 450 nm under photoirradiation with visible light and measured after 30 sec by DPBF based assay relative to control; format: functional; design: scale not given: the % may be the effect or the level left
[13] = Induction of singlet oxygen production in CH3CN assessed as decrease in fluorescence intensity at 450 nm under photoirradiation with visible light and measured after 45 sec by DPBF based assay relative to control; format: functional; design: scale not given: the % may be the effect or the level left
[14] = Induction of singlet oxygen production in CH3CN assessed as decrease in fluorescence intensity at 450 nm under photoirradiation with visible light and measured after 1 min by DPBF based assay relative to control; format: functional; design: scale not given: the % may be the effect or the level left
[15] = Induction of singlet oxygen production in CH3CN assessed as singlet oxygen quantum yield at 450 nm under photoirradiation with visible light and measured after 15 to 60 sec by DPBF based assay; format: functional; details: time 15-60 sec
[16] = Cytotoxicity against HEK293T cells assessed as inhibition of cell growth incubated for 72 hrs under dark condition by MTT assay; format: toxicity, cell-based, HEK-293T; details: human
[17] = Cytotoxicity against HEK293T cells assessed as inhibition of cell growth incubated for 72 hrs under photoirradiation with 6 cool white lamps for 15 mins at 4,28 and 52 hrs after compound addition by MTT assay; format: toxicity, cell-based, HEK-293T; details: human
[18] = Cytotoxicity against human HaCaT cells assessed as inhibition of cell growth incubated for 72 hrs under dark condition by MTT assay; format: toxicity, cell-based
[19] = Cytotoxicity against human HaCaT cells assessed as inhibition of cell growth incubated for 72 hrs under photoirradiation with 6 cool white lamps for 15 mins at 4,28 and 52 hrs after compound addition by MTT assay; format: toxicity, cell-based
[20] = tested on: HCT-116; test: Induction of ROS generation in human HCT-116 cells at 5 uM incubated for 1 hrs under dark condition by DCFH-DA staining based fluorescence analysis; format: functional, cell-based
[21] = tested on: HCT-116; test: Induction of ROS generation in human HCT-116 cells assessed as increase in oxidative stress at 5 uM preincubated with compound for 1 hrs followed by photoirradiation with 6 cool white lamps by DCFH-DA staining based fluorescence analysis; format: functional, cell-based

Structure (SMILES)	IC50 [1] [µM]	IC50 [2] [µM]	IC50 [3] [µM]	IC50 [4] [µM]	IC50 [5] [µM]	IC50 [6] [µM]	Activity [7] [nm]	Activity [8] [nm]	Activity [9] [M⁻¹ cm⁻¹]	Activity [10]	also measured
COc1cccc(CO)c1OCC1=C2C(C)=C(I)C(C)=[N+]2[B-](C)(C)n2c(C)c(I)c(C)c21	12	0.1	31	0.15	13	0.15	535	560	65694	0.012	–
CO[B-]1(C)n2c(C)c(I)c(C)c2C(COc2ccccc2COC(C)=O)=C2C(C)=C(I)C(C)=[N+]21 (stereo not given)	27	0.7	> 100	1.3	> 100	1.7	–	–	–	–	–
COc1cccc(COC(C)=O)c1OCC1=C2C(C)=CC(C)=[N+]2[B-](C)(C)n2c(C)cc(C)c21	47	0.2	≥ 100	0.26	≥ 100	0.34	510	522	75178	0.27	Activity [11]: 1%; Activity [12]: 6.9%; Activity [13]: 14.9%; Activity [14]: 20.2%; Activity [15]: 0.1; IC50 at 72 h [16]: ≥ 100 µM; IC50 at 72 h [17]: 1.3 µM; IC50 at 72 h [18]: > 100 µM; IC50 at 72 h [19]: 0.6 µM; Activity [20]: inactive; Activity [21]: Active
CO[B-]1(C)n2c(C)c(I)c(C)c2C(COc2ccccc2CO)=C2C(C)=C(I)C(C)=[N+]21 (stereo not given)	8	8	34	≤ 50	42	30	–	–	–	–	–
COc1cccc(COC(C)=O)c1OCC1=C2C(C)=C(I)C(C)=[N+]2[B-](C)(C)n2c(C)c(I)c(C)c21	> 100	0.13	> 100	0.22	> 100	0.176	535	545	58719	0.017	Activity [11]: 84.9%; Activity [12]: 98.8%; Activity [13]: 100%; Activity [15]: 0.78; IC50 at 72 h [16]: > 100 µM; IC50 at 72 h [17]: 0.2 µM; IC50 at 72 h [18]: > 100 µM; IC50 at 72 h [19]: 0.2 µM
CC1=CC(C)=[N+]2C1=C(C=O)c1c(C)cc(C)n1[B-]2(C)C	20	15	> 100	61	49	40	–	–	–	–	–
CO[B-]1(C)n2c(C)cc(C)c2C(COc2ccccc2COC(C)=O)=C2C(C)=CC(C)=[N+]21 (stereo not given)	13	1.18	20	2	17	2.3	–	–	–	–	–
CC1=C(I)C(C)=[N+]2C1=C(COc1ccccc1CO)c1c(C)c(I)c(C)n1[B-]2(C)C	27	0.13	53	0.18	37	0.13	537	560	41143	0.005	–
COc1cccc(CO)c1OCC1=C2C(C)=CC(C)=[N+]2[B-](C)(C)n2c(C)cc(C)c21	15	0.2	16	0.24	12	0.38	510	521	109069	0.33	Activity [20]: inactive; Activity [21]: Active
CC1=C(Br)C(C)=[N+]2C1=C(COc1ccccc1CO)c1c(C)c(Br)c(C)n1[B-]2(C)C	17	0.23	69	0.6	26	0.4	531	557	42810	0.04	–
CC1=CC(C)=[N+]2C1=C(COc1ccccc1CO)c1c(C)cc(C)n1[B-]2(C)C	14	0.2	16.1	0.13	13	0.15	510	527	87209	0.33	Activity [11]: 1.1%; Activity [12]: 8.8%; Activity [13]: 18.9%; Activity [14]: 26.9%; Activity [15]: 0.1; Activity [20]: inactive; Activity [21]: Active
CC(=O)OCc1ccccc1OCC1=C2C(C)=CC(C)=[N+]2[B-](C)(C)n2c(C)cc(C)c21	27	0.2	83	0.19	33	0.21	510	521	146706	0.28	Activity [11]: 4.9%; Activity [12]: 12.9%; Activity [13]: 21.1%; Activity [14]: 32.3%; Activity [15]: 0.1; Activity [20]: inactive; Activity [21]: Active
COc1cccc(COC(C)=O)c1OCC1=C2C(C)=C(Br)C(C)=[N+]2[B-](C)(OC)n2c(C)c(Br)c(C)c21 (stereo not given)	15	2	48	16	24	6	–	–	–	–	–
COc1cccc(CO)c1OCC1=C2C(C)=C(Br)C(C)=[N+]2[B-](C)(C)n2c(C)c(Br)c(C)c21	11	0.15	19	0.18	14	0.192	530	555	54912	0.04	–
CC(=O)OCc1ccccc1OCC1=C2C(C)=C(I)C(C)=[N+]2[B-](C)(C)n2c(C)c(I)c(C)c21	63	0.17	≥ 100	0.25	≥ 100	0.18	537	565	37520	0.005	–
CO[B-]1(C)n2c(C)c(Br)c(C)c2C(COc2ccccc2CO)=C2C(C)=C(Br)C(C)=[N+]21 (stereo not given)	27	6	> 100	17	> 100	14	–	–	–	–	–
CC(=O)OCC1=C2C(C)=CC(C)=[N+]2[B-](F)(F)n2c(C)cc(C)c21	–	–	–	–	–	–	517	528	99848	0.99	–
